The data set has as its target SNHG14. The conditions noted are these: ASO.
[1] abbreviates: Mouse Primary Neuronal Cell, 0.005 µM.

After the bases stand the sugars from the 5' end (letter, count) and the backbone: PS all phosphorothioate, else s phosphorothioate and o phosphodiester by linkage. Methylation of C is not given here. l = locked nucleic acid (LNA); d = 2'-deoxy (DNA)

As for “TTATAGCCATTCTATCT (sugars ldddldddddddlddll, PS)”, the target mRNA inhibition (Human Neuronal Cell, 7.5 µM) came to 31%. Turning to “TTATAGCCATTCTATCT (sugars lddllddddddldldll, PS)”, the target mRNA inhibition (Human Neuronal Cell, 7.5 µM) was 15%. “TTATAGCCATTCTATCT (sugars lddlddddddddlddll, PS)”: the target mRNA inhibition (Human Neuronal Cell, 7.5 µM) stood at 17%. The same measure, in the same setting: the figure for “CTGTTTATACCCTTTCCA (sugars l1 d1 l1 d13 l2, PS)” is 50%. As for GCATTCAACCCTAATC (sugars l4 d10 l2, PS), the target mRNA inhibition came out at 46% (Human Neuronal Cell, 0.2 µM) and 47% (Human Neuronal Cell, 1 µM). Turning to “CTACATCTCATACTTGC (sugars l2 d12 l3, PS)”, the target mRNA inhibition under setting [1] is 97%. Regarding “GTTCTACTATACTTTCCT (sugars lddldlddddddddddll, PS)”, under “Human Neuronal Cell, 7.5 µM”, the target mRNA inhibition was found to be 56%. For the sequence “TTTACTCTGCAATACAC (sugars l3 d11 l3, PS)”, the target mRNA inhibition (Human Neuronal Cell, 0.2 µM) came to 41% and the target mRNA inhibition (Human Neuronal Cell, 1 µM) was found to be 56%. On to “TTGATTCAATTCCCTTA (sugars l1 d2 l1 d9 l4, PS)”, for which, for the setting “Human Neuronal Cell, 7.5 µM”, the target mRNA inhibition is 69%. The same measure, in the same setting: the figure for “TTTTATACCTTTCTTTAACC (sugars llldddddddddddldldll, PS)” is 65%; for “GTTTCCATCTACTATTAAT (sugars lddddlddddddllddlll, PS)” it is 59%. “TTTATCAATATCTTCTCAC (sugars lllddldddddddllddll, PS)”: the target mRNA inhibition (Human Neuronal Cell, 7.5 µM) was determined as 54%. Consider “TTTCTGACTCCCTATCC (sugars l2 d13 l2, PS)”, for which the target mRNA inhibition (Human Neuronal Cell, 0.2 µM) amounted to 25% and the target mRNA inhibition (Human Neuronal Cell, 1 µM) is 14%. The matching figures for CTATGTTAATACTTTC (sugars l4 d10 l2, PS): 26% and 31%. As to “TTATTTCCATTTATTTTCA (sugars lddlldddddddldldlll, PS)”, the target mRNA inhibition (Human Neuronal Cell, 7.5 µM) was 69%. As for “TATCTCATTTACATTATT (sugars l4 d12 l2, PS)”, the target mRNA inhibition reads like this: (Human Neuronal Cell, 0.2 µM) 27%; (Human Neuronal Cell, 1 µM) 43%. For the sequence “TAAAATTATTTATACACCAT (sugars lllldllddddddlllldll, PS)”, the target mRNA inhibition (Human Neuronal Cell, 7.5 µM) is -13%. Same read-out and setting: the figure for “ACTGTTTATACCCTTTCC (sugars l1 d15 l2, PS)” is 40%.

For the sequence “ATTTCTCTATGTCACAT (sugars l3 d11 l3, PS)”, the target mRNA inhibition stood at 31% (Human Neuronal Cell, 0.2 µM) and 35% (Human Neuronal Cell, 1 µM).

For “TTTATACCTTTCTTTAACCC (sugars l1 d12 l1 d4 l2, PS)”, the target mRNA inhibition (Human Neuronal Cell, 7.5 µM) was found to be 17%.

For the sequence AACCCATTTCTAACAT (sugars l4 d10 l2, PS), the target mRNA inhibition runs as follows: (Human Neuronal Cell, 0.2 µM) 35%; (Human Neuronal Cell, 1 µM) 56%.

Take “TTACACTTAATTATACTTCC (sugars ldldldldddddddddldll, PS)”: the target mRNA inhibition (Human Neuronal Cell, 7.5 µM) worked out at 65%.

With “GCAACATTATTAACCACCT (sugars lddddlddddddldddlll, PS)”, the target mRNA inhibition (Human Neuronal Cell, 7.5 µM) was determined as 42%. Still for that read-out and setting: as for “AAAGATCATTCTCAACAA (sugars ldllldddddddlldlll, PS)”, the figure is 65%; as for “AATTTTTTTCTTACTATCTT (sugars lddddldddddddldldlll, PS)”, 50%. For “TTATAGCCATTCTATCT (sugars l1 d1 l2 d11 l2, PS)”, the target mRNA inhibition (Human Neuronal Cell, 7.5 µM) was determined as 66%.

With “AGCAACATTATTAACCACC (sugars lddldlddddddldddlll, PS)”, the target mRNA inhibition (Human Neuronal Cell, 7.5 µM) was 52%. On to “TTTTAACCAGAGTGGCATCC (sugars l2 d16 l2, PS)”, for which the target mRNA inhibition (Human Neuronal Cell, 7.5 µM) was found to be 59%. Still for that read-out and setting: as for “CTCAAAGATCATTCTCA (sugars l1 d1 l3 d8 l4, PS)”, the figure is 66%; as for “ATATTGATTCAATTCCC (sugars llldldddddddlddll, PS)”, 52%; as for “ATTTATTTCCATTTATTTTC (sugars lldldlddddddddldldll, PS)”, 55%. Consider “TTTACACTTAATTATACTTC (sugars l6 d7 l1 d4 l2, PS)”, for which the target mRNA inhibition (Human Neuronal Cell, 7.5 µM) was determined as 58%. Still for that read-out and setting: the figure for “GTTCTACTATACTTTCCT (sugars lddldldddddddlddll, PS)” is 55%. The same measure, in the same setting: the figure for “AAAATCTCAACTACCATTT (sugars l6 d7 l2 d2 l2, PS)” is 41%; for “GCAACATTATTAACCACCT (sugars ldlddddddddddddldll, PS)” it is 58%.

On to “CAAAGATCATTCTCAAC (sugars l5 d6 l1 d1 l4, PS)”, for which the target mRNA inhibition (Human Neuronal Cell, 7.5 µM) is 22%.

Regarding “CAGCTTTTAACCAGAGTGG (sugars l1 d15 l3, PS)”, the target mRNA inhibition (Human Neuronal Cell, 7.5 µM) is 69%.

Turning to “TTTCCTCTGCTTATAAC (sugars l4 d11 l2, PS)”, the target mRNA inhibition (Human Neuronal Cell, 0.2 µM) is 34% and the target mRNA inhibition (Human Neuronal Cell, 1 µM) was found to be 56%.

As for “AAAATCTCAACTACCATTT (sugars ldldllddddddddlllll, PS)”, the target mRNA inhibition (Human Neuronal Cell, 7.5 µM) stood at 31%. Still for that read-out and setting: as for “TTATACCTTTCTTTAACCCT (sugars l1 d5 l1 d11 l2, PS)”, the figure is 59%. As for TGCAAATACCTCTTCA (sugars l4 d10 l2, PS), the target mRNA inhibition is, setting by setting: (Human Neuronal Cell, 0.2 µM) 64%; (Human Neuronal Cell, 1 µM) 69%. Take “TTCTGTATACACCATCC (sugars l1 d3 l1 d10 l2, PS)”: the target mRNA inhibition (Human Neuronal Cell, 7.5 µM) turned out to be 50%. For “CTTTAATGCTTCTAACT (sugars l4 d11 l2, PS)”, the target mRNA inhibition is, setting by setting: (Human Neuronal Cell, 0.2 µM) 28%; (Human Neuronal Cell, 1 µM) 55%.

Turning to “TCTCAGCTTCTTCAAAT (sugars l2 d12 l3, PS)”, the target mRNA inhibition (Human Neuronal Cell, 0.2 µM) worked out at 26% and the target mRNA inhibition (Human Neuronal Cell, 1 µM) is 23%. Turning to “TTGATTCAATTCCCTTA (sugars ldldlddddddddldll, PS)”, where the note is “Human Neuronal Cell, 7.5 µM”, the target mRNA inhibition was 59%. Same read-out and setting: as for “TACTCTGCAATACACCA (sugars l1 d10 l1 d3 l2, PS)”, the figure is 59%; as for “TTGATTCAATTCCCTTA (sugars ldddlddddddldldll, PS)”, 48%; as for “ACTCTGCAATACACCAA (sugars llddlddddddldldll, PS)”, 33%. As to “TTCTACTATACTTTCCTCT (sugars ldldddddddddlddddll, PS)”, the target mRNA inhibition (Human Neuronal Cell, 7.5 µM) is 59%. The same measure, in the same setting: the figure for “TATTGATTCAATTCCCT (sugars l2 d2 l1 d10 l2, PS)” is 55%.

Regarding “TTTATCAATATCTTCTCACT (sugars ldldddddddddddldddll, PS)”, the target mRNA inhibition (Human Neuronal Cell, 7.5 µM) was 39%. Regarding “TACCTACATCTCATACTT (sugars l4 d12 l2, PS)”, the target mRNA inhibition runs as follows: (Human Neuronal Cell, 0.2 µM) -19%; (Human Neuronal Cell, 1 µM) 3%; (Human Neuronal Cell, 5 µM) 7%; under setting [1], 94.8%. “AGTTCTACTATACTTTC (sugars l2 d1 l2 d10 l2, PS)”: the target mRNA inhibition (Human Neuronal Cell, 7.5 µM) was 58%. Turning to “CTTTCCATTTATTTCCATT (sugars ldddddddddddldldlll, PS)”, the target mRNA inhibition (Human Neuronal Cell, 7.5 µM) was 66%. As to AACAACTCATGCCACA (sugars l2 d10 l4, PS), the target mRNA inhibition is, setting by setting: (Human Neuronal Cell, 0.2 µM) 53%; (Human Neuronal Cell, 1 µM) 59%. The matching figures for “TACACTTAATTATACTTC (sugars l2 d12 l4, PS)”: 26% and 42%. For the sequence “TTATAGCCATTCTATCT (sugars llddlddddddldddll, PS)”, the target mRNA inhibition (Human Neuronal Cell, 7.5 µM) came to 45%. Same read-out and setting: as for “TTTATCAATATCTTCTCACT (sugars lddddlddddddddddldll, PS)”, the figure is 68%; as for “ATTTTTTTCTTACTATCTTC (sugars lddddlddddddddldldll, PS)”, 63%; as for “AGTTCTACTATACTTTC (sugars llddlddddddldllll, PS)”, 18%.

As to “TGAAACATTCTTCCCAC (sugars l2 d12 l3, PS)”, the target mRNA inhibition came to 11% (Human Neuronal Cell, 0.2 µM) and 13% (Human Neuronal Cell, 1 µM).

For “TTATAGCCATTCTATCT (sugars ldldlddddddlddlll, PS)”, the target mRNA inhibition (Human Neuronal Cell, 7.5 µM) was 37%. Still for that read-out and setting: the figure for “TTATAGCCATTCTATCT (sugars l2 d11 l1 d1 l2, PS)” is 56%. On to “ACTGTTTATACCCTTTC (sugars l4 d11 l2, PS)”, for which the target mRNA inhibition by setting is: (Human Neuronal Cell, 0.2 µM) 43%; (Human Neuronal Cell, 1 µM) 51%. For “TAAAGATCCCATCACTC (sugars l3 d11 l3, PS)”, in that order: 44% and 50%. For the sequence “GCACATTCTTTCTATAC (sugars l2 d9 l1 d3 l2, PS)”, where the note is “Human Neuronal Cell, 7.5 µM”, the target mRNA inhibition worked out at 48%. Take “GATCATTCTCAACAATTAA (sugars lldddlddddddlldllll, PS)”: the target mRNA inhibition (Human Neuronal Cell, 7.5 µM) amounted to 39%. Still for that read-out and setting: the figure for “TCTTTCCATTTATTTCCATT (sugars l2 d3 l1 d11 l3, PS)” is 56%.

“TTTTATACCTTTCTTTAACC (sugars l1 d14 l1 d2 l2, PS)”: for the setting “Human Neuronal Cell, 7.5 µM”, the target mRNA inhibition came to 21%.

On to “TTCTGTTTCCATTTACA (sugars l4 d11 l2, PS)”, for which the target mRNA inhibition by setting is: (Human Neuronal Cell, 0.2 µM) 43%; (Human Neuronal Cell, 1 µM) 39%.

For “CCTTTAGCATTTCTATT (sugars l2 d11 l4, PS)”, the target mRNA inhibition reads like this: (Human Neuronal Cell, 0.2 µM) 38%; (Human Neuronal Cell, 1 µM) 59%. With “TGTTTCCATCTACTATTA (sugars lddldlddddddddddll, PS)”, for the setting “Human Neuronal Cell, 7.5 µM”, the target mRNA inhibition came to 59%. Same read-out and setting: as for “GTTCTACTATACTTTCCT (sugars l1 d4 l1 d9 l3, PS)”, the figure is 57%; as for “GATCATTCTCAACAATTA (sugars l2 d1 l2 d10 l3, PS)”, 57%.

In the case of “TCACTTTCCAGATATCA (sugars l4 d11 l2, PS)”, the target mRNA inhibition runs as follows: (Human Neuronal Cell, 0.2 µM) 17%; (Human Neuronal Cell, 1 µM) 5%; (Human Neuronal Cell, 5 µM) 15%; under setting [1], 92%. With “TACATCTCATACTTGCT (sugars l2 d11 l4, PS)”, the target mRNA inhibition is, setting by setting: (Human Neuronal Cell, 0.2 µM) -18%; (Human Neuronal Cell, 1 µM) 2%; (Human Neuronal Cell, 5 µM) 18%; under setting [1], 95%. As for “CAACATTATTAACCACCTTA (sugars l2 d4 l1 d11 l2, PS)”, under “Human Neuronal Cell, 7.5 µM”, the target mRNA inhibition is 37%.

The values above are taken from the OligoGym collection.
